Data published in ChEMBL document CHEMBL5104131, “Pyrimidine-conjugated fluoroquinolones as new potential broad-spectrum antibacterial agents” (Bioorg Med Chem Lett, 2022).
≈ marks a conversion by molar mass, not a printed value.

Key:
[1] = test system: Staphylococcus aureus; assay: Antibacterial activity against methicillin-resistant Staphylococcus aureus N315 assessed as bacterial growth inhibition by serial dilution method; type: functional
[2] = test system: Enterococcus faecalis; assay: Antibacterial activity against Enterococcus faecalis assessed as bacterial growth inhibition by serial dilution method; type: functional
[3] = test system: Staphylococcus aureus; assay: Antibacterial activity against Staphylococcus aureus assessed as bacterial growth inhibition by serial dilution method; type: functional
[4] = test system: Staphylococcus aureus; assay: Antibacterial activity against Staphylococcus aureus ATCC 25923 assessed as bacterial growth inhibition by serial dilution method; type: functional
[5] = test system: Staphylococcus aureus; assay: Antibacterial activity against Staphylococcus aureus ATCC 29213 assessed as bacterial growth inhibition by serial dilution method; type: functional
[6] = test system: Klebsiella pneumoniae; assay: Antibacterial activity against Klebsiella pneumoniae assessed as bacterial growth inhibition by serial dilution method; type: functional
[7] = test system: Escherichia coli; assay: Antibacterial activity against Escherichia coli assessed as bacterial growth inhibition by serial dilution method; type: functional
[8] = test system: Escherichia coli; assay: Antibacterial activity against Escherichia coli ATCC 25922 assessed as bacterial growth inhibition by serial dilution method; type: functional
[9] = test system: Pseudomonas aeruginosa; assay: Antibacterial activity against Pseudomonas aeruginosa assessed as bacterial growth inhibition by serial dilution method; type: functional
[10] = test system: Pseudomonas aeruginosa; assay: Antibacterial activity against Pseudomonas aeruginosa ATCC 27853 assessed as bacterial growth inhibition by serial dilution method; type: functional
[11] = test system: Acinetobacter baumannii; assay: Antibacterial activity against Acinetobacter baumannii assessed as bacterial growth inhibition by serial dilution method; type: functional
[12] = test system: Candida tropicalis; assay: Antifungal activity against Candida tropicalis assessed as inhibition of fungal growth; type: functional
[13] = test system: Candida parapsilosis; assay: Antifungal activity against Candida parapsilosis ATCC 22019 assessed as inhibition of fungal growth; type: functional; conditions: Lodderomyces parapsilosis
[14] = test system: Aspergillus fumigatus; assay: Antifungal activity against Aspergillus fumigatus assessed as inhibition of fungal growth; type: functional
[15] = Cytotoxicity against human HaCaT cells assessed as cell viability at 12.5 ug/ml by CCK-8 assay relative to control; type: toxicity, cell-based; conditions: at 12.5 µg/mL, read-out: Activity
[16] = Cytotoxicity against human HaCaT cells assessed as cell viability at 50 ug/ml by CCK-8 assay relative to control; type: toxicity, cell-based; conditions: at 50 µg/mL, read-out: Activity
[17] = test system: Staphylococcus aureus; assay: Potency index, ratio of norfloxacin MIC to test compound MIC for antibacterial activity against methicillin-resistant Staphylococcus aureus N315 assessed as bacterial growth inhibition by serial dilution method; type: functional
[18] = test system: Staphylococcus aureus; assay: Potency index, ratio of ciprofloxacin MIC to test compound MIC for antibacterial activity against methicillin-resistant Staphylococcus aureus N315 assessed as bacterial growth inhibition by serial dilution method; type: functional

SMILES | MIC [1] [µg/mL] | MIC [2] [µg/mL] | MIC [3] [µg/mL] | MIC [4] [µg/mL] | MIC [5] [µg/mL] | MIC [6] [µg/mL] | MIC [7] [µg/mL] | MIC [8] [µg/mL] | MIC [9] [µg/mL] | MIC [10] [µg/mL] | MIC [11] [µg/mL] | MIC [12] [µg/mL] | MIC [13] [µg/mL] | MIC [14] [µg/mL] | viability at 12.5 ug/ml [15] [%] | viability at 50 ug/ml [16] [%] | Ratio [17] | Ratio [18]
CCc1cnc(N2CCN(c3cc4c(cc3F)c(=O)c(C(=O)O)cn4C3CC3)CC2)nc1 | 128 (≈ 293 µM) | 64 (≈ 146 µM) | 1 (≈ 2.29 µM) | 8 (≈ 18.3 µM) | 64 (≈ 146 µM) | 256 (≈ 585 µM) | 8 (≈ 18.3 µM) | 4 (≈ 9.14 µM) | 4 (≈ 9.14 µM) | 64 (≈ 146 µM) | 64 (≈ 146 µM) | 2 (≈ 4.57 µM) | – | – | – | – | – | –
CCn1cc(C(=O)O)c(=O)c2cc(F)c(N3CCN(c4ncc(Br)cn4)CC3)cc21 | 128 (≈ 269 µM) | 64 (≈ 134 µM) | 8 (≈ 16.8 µM) | 64 (≈ 134 µM) | 64 (≈ 134 µM) | 256 (≈ 537 µM) | 64 (≈ 134 µM) | 128 (≈ 269 µM) | 8 (≈ 16.8 µM) | 64 (≈ 134 µM) | 64 (≈ 134 µM) | – | – | – | – | – | – | –
COc1cnc(N2CCN(c3cc4c(cc3F)c(=O)c(C(=O)O)cn4C3CC3)CC2)nc1 | 32 (≈ 72.8 µM) | 32 (≈ 72.8 µM) | 256 (≈ 583 µM) | 8 (≈ 18.2 µM) | 2 (≈ 4.55 µM) | 16 (≈ 36.4 µM) | 64 (≈ 146 µM) | 4 (≈ 9.1 µM) | 64 (≈ 146 µM) | 32 (≈ 72.8 µM) | 1 (≈ 2.28 µM) | 2 (≈ 4.55 µM) | 2 (≈ 4.55 µM) | – | – | – | – | –
CCn1cc(C(=O)O)c(=O)c2cc(F)c(N3CCN(c4ncccn4)CC3)cc21 | 2 (≈ 5.03 µM) | 8 (≈ 20.1 µM) | 64 (≈ 161 µM) | 8 (≈ 20.1 µM) | 32 (≈ 80.5 µM) | 4 (≈ 10.1 µM) | 16 (≈ 40.3 µM) | 64 (≈ 161 µM) | 16 (≈ 40.3 µM) | 128 (≈ 322 µM) | 64 (≈ 161 µM) | – | – | 2 (≈ 5.03 µM) | – | – | – | –
CCn1cc(C(=O)O)c(=O)c2cc(F)c(N3CCN(c4ncc(OC)cn4)CC3)cc21 | 1 (≈ 2.34 µM) | 1 (≈ 2.34 µM) | 2 (≈ 4.68 µM) | 32 (≈ 74.9 µM) | 8 (≈ 18.7 µM) | 64 (≈ 150 µM) | 64 (≈ 150 µM) | 2 (≈ 4.68 µM) | 32 (≈ 74.9 µM) | 128 (≈ 299 µM) | 128 (≈ 299 µM) | – | – | 2 (≈ 4.68 µM) | – | – | – | –
O=C(O)c1cn(C2CC2)c2cc(N3CCN(c4ncccn4)CC3)c(F)cc2c1=O | 16 (≈ 39.1 µM) | 2 (≈ 4.88 µM) | 4 (≈ 9.77 µM) | 64 (≈ 156 µM) | 32 (≈ 78.2 µM) | 64 (≈ 156 µM) | 8 (≈ 19.5 µM) | 1 (≈ 2.44 µM) | 8 (≈ 19.5 µM) | 32 (≈ 78.2 µM) | > 256 | – | – | 1 (≈ 2.44 µM) | > 90 | 70 | – | –
O=C(O)c1cn(C2CC2)c2cc(N3CCN(c4ncc(Br)cn4)CC3)c(F)cc2c1=O | 128 (≈ 262 µM) | 128 (≈ 262 µM) | 16 (≈ 32.8 µM) | 16 (≈ 32.8 µM) | 8 (≈ 16.4 µM) | 128 (≈ 262 µM) | 64 (≈ 131 µM) | 128 (≈ 262 µM) | 16 (≈ 32.8 µM) | 32 (≈ 65.5 µM) | 32 (≈ 65.5 µM) | – | – | – | – | – | – | –
CCn1cc(C(=O)O)c(=O)c2cc(F)c(N3CCN(c4nccc(C(F)(F)F)n4)CC3)cc21 | > 256 | 64 (≈ 138 µM) | > 256 | 256 (≈ 550 µM) | 128 (≈ 275 µM) | 128 (≈ 275 µM) | > 256 | 256 (≈ 550 µM) | 128 (≈ 275 µM) | > 256 | 128 (≈ 275 µM) | – | – | – | – | – | – | –
Cc1cnc(N2CCN(c3cc4c(cc3F)c(=O)c(C(=O)O)cn4C3CC3)CC2)nc1 | 256 (≈ 605 µM) | 4 (≈ 9.45 µM) | 128 (≈ 302 µM) | 2 (≈ 4.72 µM) | 64 (≈ 151 µM) | > 256 | 64 (≈ 151 µM) | 8 (≈ 18.9 µM) | 2 (≈ 4.72 µM) | 256 (≈ 605 µM) | 128 (≈ 302 µM) | – | – | – | – | – | – | –
O=C(O)c1cn(C2CC2)c2cc(N3CCN(c4ncc(F)cn4)CC3)c(F)cc2c1=O | 1 (≈ 2.34 µM) | 8 (≈ 18.7 µM) | 8 (≈ 18.7 µM) | 8 (≈ 18.7 µM) | 32 (≈ 74.9 µM) | 128 (≈ 299 µM) | 128 (≈ 299 µM) | 8 (≈ 18.7 µM) | 64 (≈ 150 µM) | 256 (≈ 599 µM) | > 256 | – | – | – | – | – | 8 | 2
